Experimental findings from patent US4920129A, “Anti-ulcerative imidazopyridine compounds” (Fujisawa Pharmaceutical Company, Ltd., priority 1987, dated 1990) are described below.

One assay has as its system stress ulcer. Put plainly: Inhibition on stress ulcer (water-bath immobilization). Type of assay: in vivo, Sprague-Dawley rats. To be noted: 32 mg/kg, oral, just before immobilization; 7 hours; rats. The protocol: INHIBITION ON STRESS ULCER
Five Sprague-Dawley rats weighing about 200 g were used per group. Each animal was immobilized in a small cage and put in a water bath allowing to respire. The temperature of the water bath kept at 22° C. The test compound was administered orally just before the immobilization. Seven hours later, the animals were sacrificed and their stomachs were removed. The stomach was then fixed with 2% formalin. The area of ulcers was measured for each animal. The mean area (mm^2) in the medicated animals was compared with that in the control animals.

Assay [1] has as its system gastrin-stimulated acid secretion. Put plainly: Effect on gastrin-stimulated acid secretion in Heidenhain pouch dogs. The class given is in vivo. To be noted: 3.2 mg/kg, oral, tetragastrin 10 μg/kg/hr infusion, gastric juice collected 3 hr after drug. On the procedure:
EFFECT ON GASTRIN-STIMULATED ACID SECRETION IN HEIDENHAIN POUCH DOGS
Dogs equipped with Heidenhain pouches were placed on tables and restrained minimally in pavlov slings. Gastrin(tetragastrin) in 0.9% saline was continuously infused through the cephalic vein at a dose of 10 μg/kg/hr over a 5- to 6-hr period in a volume of 0.1 ml/kg/min. After acid secretion had reached a plateau (usually within 2 hr), drug was given orally in a volume of 1 ml/kg. Gastric juice was collected at 15 min intervals for 1 hr before and for 3 hr after drug administration. The volume of each sample was determined, and an aliquot was titrated to pH 7.0 with 0.1M NaOH. Acid output was expressed as μEq H^+ /15 min. The effect of drug was described as percent drug-induced change in acid secretion.

For `C#CCc1c(C)nc2c(NCc3c(C)cccc3NC(=O)OC)cccn12` [(1), 8-(2-Methyl-6-methoxycarbonylaminobenzylamino)-3-(2-propynyl)-2-methylimidazo[1,2-a]pyridine], the “Inhibition % (area of ulcers)” value in the assay with stress ulcer is on record as 100%. In addition, the “Maximum inhibition % (acid secretion)” value in assay [1] was found to be 100%.
